These results are taken from US20220218834A1, “APOHEMOGLOBIN-HAPTOGLOBIN COMPLEXES AND METHODS OF USING THEREOF” (OHIO STATE INNOVATION FOUNDATION, priority 2019, published 2022).

For series [1] the following is noted: unit not given; cited from earlier work.
The test system of series [2] is normal cells (NOR-10, MCF 10A). In words: Cell viability (MTT) without laser irradiation, normal cells. It counts as cell-based, murine and human. Conditions: without laser irradiation (dark). The method, then:
(§1) Cell Culture. Cancerous (4T1 [murine] and MDA-MB-231 [human]) and noncancerous (NOR-10 [murine] and MCF-10A [human]) cell lines were purchased from American Type Culture Collection (ATCC, Manassas, Va.). All cells were cultured in DMEM, and supplemented with 10% (v:v) fetal bovine serum and 1% (v:v) antibiotic solution (100 IU/mL penicillin and […]). All cells were maintained at 37° C. in 5% CO2 and in a humidified atmosphere.
(§2) PDT. For PDT, 4T1, MDA-MB-231, NOR-10, and MCF-10A cells were cultured for 24 hours at a density of 5×10^3 on coverslips. Next, cells were exposed to Al-PC, apoHb-Al-PC-Hp, and apoHb-Hp in culture medium at different concentrations. Later, the cells were irradiated with a laser (λ=670 nm) at energy densities between 0.0 J/cm2 and 4 J/cm2 for 15 minutes in the dark.
(§3) Cell Viability. Cell viability was assessed using the MTT assay, which is converted by the mitochondria of viable cells to an insoluble purple precipitate. Briefly, after receiving their treatment, cells were washed with PBS twice and then incubated with 0.5 mg/mL of MTT in culture medium for 2 hours. Then, the MTT solution was washed away, and the purple precipitate was extracted from the cells with 150 μL of dimethyl sulfoxide (DMSO). The absorption was then measured at λ=595 nm using a spectrophotometer (Spectramax; Molecular Devices).

Series [3] has as its system cancerous cells (4T1, MDA-MB-231). The class given is cell-based. To be noted: without laser irradiation (dark). The method, then: as §1, §2, §3
Series [4] has as its system Hp. As to the kind of experiment: HPLC-SEC of apoHb-Mn-IX binding to Hp. On the set-up: species or system human. To be noted: excess apoHb, detection of Mn-IX. The protocol: Diagnostic/therapeutic solutions tested here consisted of either Mn-porphyrin IX chloride (Mn-IX) or aluminum phthalocyanine (Al-PC) chloride. The Mn-IX solution was made by dissolving 2.5 mg of Mn-IX in 0.5 mL of 0.1 M NaOH. For Al-PC, 1 mg of Al-PC was dissolved in 1 mL of pure EtOH, then 50 μL of the saturated solution was diluted into 1 mL of pure EtOH (the second dilution ensured that the Al-PC is monomeric in solution). […] From the stock diagnostic/therapeutic solutions, either 2 μl of the stock Mn-IX or 100 μl of the Al-PC solutions was added to the protein samples. The resultant mixtures had their absorbance spectras measured via UV-visible spectroscopy and were separated via size exclusion chromatography (SEC) using an Acclaim SEC-1000 (4.6×300 mm) column (Thermo Fisher Scientific, Waltham, Mass.) attached to a Dionex UltiMate 3000 system (Thermo Fisher Scientific, Waltham, Mass.). The mobile phase consisted of 50 mM potassium phosphate, pH 7.4.
Target sequence in this assay (P00738 19-160 limits assumed): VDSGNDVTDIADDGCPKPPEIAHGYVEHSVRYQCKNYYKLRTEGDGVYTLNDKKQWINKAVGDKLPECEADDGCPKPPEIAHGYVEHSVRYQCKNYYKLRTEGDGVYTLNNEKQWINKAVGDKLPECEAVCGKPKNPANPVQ
Target sequence in this assay (P00738 162-406 limits assumed): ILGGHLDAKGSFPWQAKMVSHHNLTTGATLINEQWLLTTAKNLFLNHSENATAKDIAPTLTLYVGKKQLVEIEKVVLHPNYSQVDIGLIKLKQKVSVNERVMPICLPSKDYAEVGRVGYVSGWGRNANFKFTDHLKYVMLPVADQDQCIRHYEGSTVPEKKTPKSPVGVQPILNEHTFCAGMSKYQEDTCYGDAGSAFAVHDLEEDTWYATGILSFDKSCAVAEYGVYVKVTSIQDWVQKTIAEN
Target sequence in this assay (P69905 2-142 partner limits assumed): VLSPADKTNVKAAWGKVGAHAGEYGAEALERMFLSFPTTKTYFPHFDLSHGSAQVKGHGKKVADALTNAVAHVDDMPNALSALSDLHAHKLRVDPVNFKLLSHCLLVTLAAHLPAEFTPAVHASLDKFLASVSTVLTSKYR
Target sequence in this assay (P68871 2-147 partner limits assumed): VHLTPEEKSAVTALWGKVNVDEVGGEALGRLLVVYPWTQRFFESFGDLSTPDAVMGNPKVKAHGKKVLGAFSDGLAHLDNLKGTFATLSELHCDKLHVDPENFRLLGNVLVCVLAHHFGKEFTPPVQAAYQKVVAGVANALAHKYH

The nature of series [5]: Stability of apoHb-Al-PC on dialysis against PBS. It counts as physicochemical. The method, then: Stability of ApoHb-Al-PC. […] The sample was then dialyzed against PBS using 6-8 kDa cellulose dialysis membranes to remove any residual EtOH. Dialysis was performed over three days with daily exchange of the PBS buffer. The UV-visible absorbance spectra of samples were measured before and after dialysis.

A short description of series [6]: O2-Hb/PolyHb equilibrium binding curves (Hemox Analyzer). The class given is biochemical. An excerpt:
(§4) The Hb used in this exampler was purified from human RBCs via tangential flow filtration (TFF), as described previously. Hb was polymerized with glutaraldehyde under complete deoxygenation in the tense (T) quaternary state at a 25:1 molar ratio of glutaraldehyde to Hb. After polymerization, PolyHb was clarified, purified, and buffer exchanged into a modified Ringer's lactate solution using TFF. Modified polyester sulfone hollow fiber filters with a molecular weight cutoff (MWCO) of 100 kDa were used to remove unpolymerized Hb from solution. The PolyHb solution was concentrated to 12 g/dL. […] The size distribution of PolyHb, by particle volume, was measured using dynamic light scattering (DLS) (Brookhaven Instrument Inc. BS-200M, Holtsville, N.Y.). The rheology of PolyHb solutions was measured using a DV3T-CP cone and plate rheometer (Brookfield AMETEK, Middleboro, Mass.) with cone spindle CPA-40Z. The O2-Hb/PolyHb equilibrium binding curves were measured using a Hemox Analyzer (TCS Scientific Corp., New Hope, Pa.). The Hb/PolyHb kinetics of O2 offloading (koff,O2) and NO dioxygenation kinetics (kox,NO) were measured with an Applied Photophysics SF-17 microvolume stopped-flow spectrophotometer (Applied Photophysics Ltd., Surrey, United Kingdom) using protocols previously described by Rameez and Palmer. […]

The subject of series [7] is Hp. Conditions: cited from earlier work.
Target sequence in this assay (P00738 162-406 limits assumed): as the sequence (P00738 162-406 limits assumed) above
Series [8] is described as follows: Rheology of PolyHb solutions (cone and plate rheometer). It counts as physicochemical.
From the text: as §4

Series [9] concerns Hp. As to the kind of experiment: Kinetics of Hp binding to Hb and PolyHb, stopped-flow fluorescence. Conditions: 20° C., PBS 0.1 M pH 7.4. On the set-up: species or system human. The method, then:
The Hp used for this study was purified from human Cohn Fraction IV derived from pooled human plasma. The resulting Hp contained both Hp2-1 and Hp2-2 phenotypes. The total amount of protein in solution was estimated with a Bradford assay. The Hb binding capacity of Hp was assessed by monitoring Hb binding to Hp at 413 nm with HPLC-SEC and was used to quantify the concentration of Hp. The reaction of Hp with either unmodified human Hb or PolyHb synthesized in this study was monitored using an SX-20 stopped stopped-flow spectrophotometer using previously described methods (Applied Photophysics, Leatherhead, UK). Excess Hp (2:1, Hp:PolyhHb on a Hb tetramer binding basis) was allowed to react with PolyHb to form the resulting Hp-PolyHb complex. The resulting changes in size distribution after Hp binding was estimated with HPLC-SEC using previously described methods. All measurements were taken from the same sample used in the animal study.
Target sequence in this assay (P00738 162-406 limits assumed): as above

The nature of series [10]: O2 equilibrium binding curves of rHb and native Hb (Hemox analyzer). It counts as biochemical. To be noted: 37° C.; for P50: O2 affinity; for N (cooperativity coefficient n): O2 equilibrium. The method, then:
rHb Analysis. Various liganded forms of rHb were analyzed via UV-Vis spectroscopy and compared against native Hb. The oxy-rHb and oxyHb equilibrium binding curves were measured using a Hemox analyzer (TCS Scientific Corp., New Hope, Pa.) at 37° C. The spectra of rHb was measured after one day reaction with excess heme (stage 1), after reduction and diafiltration with the modified HEMOX buffer (stage 2), after placing the rHb mixture under a CO atmosphere (stage 3), after heating the CO-rHb mixture and removing precipitate (stage 4), and after re-oxygenating the rHb sample (stage 5). Spectral deconvolution software was developed in the Python programming language (Python Software Foundation Beaverton, Oreg.) using the non-linear least squares function curve_fit of the SciPy package to determine the fraction of various liganded forms of rHb that contribute to the final spectra of the rHb mixture (i.e. containing metHb, hemichrome, oxyHb, HbCO and heme).

A short description of series [11]: Specificity of Al-PC binding to proteins (UV-visible absorbance at 680 nm). To be noted: absorbance at 680 nm after Al-PC addition in PBS.
Procedure: The stock Al-PC solution was diluted 100× into 100% EtOH.
The concentrations of Hp, HSA, Hb and rHb in solution were 1.0 mg/mL, 0.35 mg/ml (and 3.5 mg/ml), 0.35 mg/mL, and 0.33 mg/mL respectively.
The nature of series [12]: Hb/PolyHb NO dioxygenation kinetics, stopped-flow. It counts as biochemical. Conditions: 20° C., 0.1 M pH 7.4 PBS.
From the text: as §4

Consider “Hb in human RBCs: Hb in human red blood cells, literature O2 affinity”, for which the “O2 affinity P50, literature” value in series [1] is given as 29.3.
Take `[Cl][Al]1[n]2c3c4ccccc4c2N=C2N=C(N=c4c5ccccc5c([n]41)=NC1=NC(=N3)c3ccccc31)c1ccccc12` [Al-PC, aluminum phthalocyanine chloride]: the “lethal dose for 50% cell-death (LD50)” value was 10 µM in series [2] and 7 µM in series [3].
Take “apoHb-Mn-IX: Mn-porphyrin IX bound to apoHb”: in the series with Hp [4], the “affinity of Hp” value is “higher affinity for apoHb-Mn-IX than to pure apoHb”.
With apoHb-Al-PC: Al-PC bound to apoHb, the “stability in aqueous solution” value in series [5] is listed as “not stable in aqueous solution”.
By viscosity is commonly meant the resistance of a fluid to flow. Read a high viscosity as a thick fluid. The compound “hHb: human hemoglobin prepared from red blood cells via tangential flow filtration [reference compound]” displayed a cooperativity n in series [6] of 2.51±0.06. Also, the “oxygen affinity P50” value in series [6] was found to be 12.4±1.3 mm Hg. Besides, the “rate constant of Hp binding, literature” value in the series with Hp [7] is 129000 M⁻¹ s⁻¹. In series [8], this compound had a viscosity of 1.2±0.2 cP. For the same compound, the “rate constant of Hp binding” value with Hp [9] was 150000 ± 1000 M⁻¹ s⁻¹. The P50 in [10] was found to be 11.69 ± 0.88 mm Hg; in [10] (listed as Native hHb), 11.33±0.02 mm Hg; in series [10] (listed as native Hb), 11.69±0.88 mm Hg. In addition, the entries for the “N (cooperativity coefficient n)” value in series [10], in series [10] (listed as Native hHb) and in series [10] (listed as native Hb) were 2.73 ± 0.11^, 2.60±0.01 and 2.73±0.11, respectively. In addition, in series [11], the Al-PC binding entry is recorded as “no appreciable binding of Al-PC”. Also, the “rate of NO dioxygenation kox,NO” value in series [12] came to 36.0±6.1.
